Source: ChEMBL document CHEMBL1201862, “PubChem BioAssay data set” (2004)
Calls of active or inactive are those of the source.

Columns and labels:
Kallikrein-7 = Kallikrein-7 (Homo sapiens, UniProt P49862); experiment: Fluorescence Intensity-based biochemical primary high throughput dose response assay to identify activators of kallikrein-7 (K7) zymogen.
[1] = viability inhibitors of stage V gametocytes – luminescence, dose response (AID 1117278); assay type: functional, cell-based;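 note: gametocytes exposed to compound for 24 hours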
[2] = viability loss in human Jurkat cells – cell-based, luminescence, cytotoxicity control for P. falciparum gametocyte viability project, dose response (AID 1117277); assay type: functional;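 note: potency reflects loss of cellular ATP meaning fewer viable cells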
[3] = system: Streptococcus sp. 'group A'; experiment: Streptococcus pyogenes SK(-)GAS viability under kanamycin – luminescence, BacTiterGlo, confirmation, counter-screen for streptokinase expression inhibitor project, dose response (AID 1900); assay type: functional, organism-based
Streptokinase A = molecular target: T1, Streptokinase A (Streptococcus pyogenes serotype M1, UniProt P10520); experiment: viability-normalized secreted streptokinase activity reduction – plasminogen activation absorbance, OD405, dose response (AID 1914); assay type: functional, Streptococcus pyogenes M1 GAS;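 note: secreted streptokinase activity via plasminogen activation per viability signal from cell pellet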
T1 sequence (P10520 whole entry): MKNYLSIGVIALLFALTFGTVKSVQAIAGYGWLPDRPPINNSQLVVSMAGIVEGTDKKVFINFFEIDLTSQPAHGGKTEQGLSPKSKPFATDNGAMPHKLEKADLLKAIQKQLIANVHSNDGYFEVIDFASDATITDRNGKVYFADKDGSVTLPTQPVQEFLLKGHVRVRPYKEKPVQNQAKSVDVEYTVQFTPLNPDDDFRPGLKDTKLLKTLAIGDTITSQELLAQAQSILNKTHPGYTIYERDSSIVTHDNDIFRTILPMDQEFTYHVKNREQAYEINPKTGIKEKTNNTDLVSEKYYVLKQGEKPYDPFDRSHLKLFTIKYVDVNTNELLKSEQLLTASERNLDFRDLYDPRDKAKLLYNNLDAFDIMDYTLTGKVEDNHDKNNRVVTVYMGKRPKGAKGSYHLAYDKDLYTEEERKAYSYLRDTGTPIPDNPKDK

Streptococcus = experiment: GAS UMAA2166 growth inhibition – luminescence, BacTiterGlo, counter-screen for streptokinase expression inhibitor project, dose response (AID 1915); assay type: functional, organism-based;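 note: potency for reduction of bacterial viability or growth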
[4] = reduced cellular PGC1a acetyl-lysine signal – cell-based, cherry-picked samples, dose response (AID 720514); assay type: functional;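 note: potency may reflect raised or lowered acetylation signal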
Paired box protein Pax-8 = Paired box protein Pax-8 (Homo sapiens, UniProt Q06710); experiment: PAX8 transcriptional activity inhibition in RMG-I – RMG-I cells, luciferase, cherry-pick, dose response (AID 687027); assay type: functional, cell-based;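 note: luciferase reporter driven by Pax8 target thyroperoxidase promoter measured by SteadyGlo luminescence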
[5] = OVCAR-3 cell viability loss – plate reader, dry powder samples, PAX8 inhibitor project, dose response (AID 743044); assay type: functional, cell-based
[6] = OVCAR8 cell viability loss – plate reader, dry powder samples, PAX8 project, dose response (AID 743197); assay type: functional, cell-based; conditions: OVCAR-8
[7] = A549 cell cytotoxicity, dose response, cytotoxicity control, plate reader, cherry-pick, antagonist series (AID 743412); assay type: functional, cell-based
[8] = blockers of bursicon-stimulated LGR2 cAMP reporter – cell-based, HEK293, CRE-luciferase reporter, cherry pick, set 2, dose response (AID 743343); assay type: functional;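 note: transfected cells were stimulated with diluted bursicon conditioned medium after compound addition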
[9] = blockade of melanocortin 4 receptor signaling – cell-based, plate reader, cherry pick, counter-screen for LGR2 antagonist project, dose response (AID 743444); assay type: functional;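 note: transfected HEK 293 cells stimulated with alpha-MSH peptide; potency of inhibitors of the alpha-MSH evoked signal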
[10] = growth inhibition of yeast DHODH-expressing 3D7 parasites – SYBR Green, dry powder samples, dose response (AID 1159570); assay type: functional, cell-based;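 note: parasite growth measured after 72 hours of compound exposure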
[11] = toxicity to human HepG2 hepatoma cells – cell-based, plate reader, dry powder samples, cytotoxicity control, dose response (AID 1159569); assay type: functional;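 note: inhibitor potency with signal falling toward the positive control level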
[12] = Dd2 parasite growth inhibition in erythrocytes – SYBR Green, dry powder samples, set 9, dose response (AID 1159568); assay type: functional, cell-based
[13] = P. falciparum Dd2 growth inhibitors, dose response, SYBR Green, cherry-picked samples (AID 1159567); assay type: functional, cell-based
[14] = Dd2 malaria parasite growth inhibition potency – SYBR Green, dry powder samples, dose response (AID 1159566); assay type: functional, cell-based;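 note: potency for growth inhibition with lower SYBR green DNA signal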
[15] = growth inhibition of PfATP4-mutant resistant parasites – NITD609-resistant line, SYBR Green, dry powder, dose response (AID 1159571); assay type: functional, cell-based;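 note: parasites synchronized at ring stage by sorbitol before testing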
Caspase-3 = molecular target: T2, Caspase-3 (Homo sapiens, UniProt P42574); assay type: functional;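 note: Dose-response selectivity test against caspase-3 for candidate inhibitors of sentrin-specific proteases (SENPs)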
T2 sequence (P42574 whole entry): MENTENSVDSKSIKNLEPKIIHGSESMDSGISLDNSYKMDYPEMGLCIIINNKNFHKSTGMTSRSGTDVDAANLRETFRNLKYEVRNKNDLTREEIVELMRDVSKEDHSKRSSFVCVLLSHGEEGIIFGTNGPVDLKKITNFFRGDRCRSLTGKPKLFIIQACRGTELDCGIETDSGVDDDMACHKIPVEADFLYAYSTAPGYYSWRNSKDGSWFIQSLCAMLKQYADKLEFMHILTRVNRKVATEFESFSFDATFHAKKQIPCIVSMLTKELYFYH

[16] = molecular target: T3, Sentrin-specific protease 7 (Homo sapiens, UniProt Q9BQF6); assay type: functional;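 note: Luminescence-based dose-response confirmation of ultra-high-throughput screening hits, measuring inhibition of SENP7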
T3 sequence (Q9BQF6 whole entry): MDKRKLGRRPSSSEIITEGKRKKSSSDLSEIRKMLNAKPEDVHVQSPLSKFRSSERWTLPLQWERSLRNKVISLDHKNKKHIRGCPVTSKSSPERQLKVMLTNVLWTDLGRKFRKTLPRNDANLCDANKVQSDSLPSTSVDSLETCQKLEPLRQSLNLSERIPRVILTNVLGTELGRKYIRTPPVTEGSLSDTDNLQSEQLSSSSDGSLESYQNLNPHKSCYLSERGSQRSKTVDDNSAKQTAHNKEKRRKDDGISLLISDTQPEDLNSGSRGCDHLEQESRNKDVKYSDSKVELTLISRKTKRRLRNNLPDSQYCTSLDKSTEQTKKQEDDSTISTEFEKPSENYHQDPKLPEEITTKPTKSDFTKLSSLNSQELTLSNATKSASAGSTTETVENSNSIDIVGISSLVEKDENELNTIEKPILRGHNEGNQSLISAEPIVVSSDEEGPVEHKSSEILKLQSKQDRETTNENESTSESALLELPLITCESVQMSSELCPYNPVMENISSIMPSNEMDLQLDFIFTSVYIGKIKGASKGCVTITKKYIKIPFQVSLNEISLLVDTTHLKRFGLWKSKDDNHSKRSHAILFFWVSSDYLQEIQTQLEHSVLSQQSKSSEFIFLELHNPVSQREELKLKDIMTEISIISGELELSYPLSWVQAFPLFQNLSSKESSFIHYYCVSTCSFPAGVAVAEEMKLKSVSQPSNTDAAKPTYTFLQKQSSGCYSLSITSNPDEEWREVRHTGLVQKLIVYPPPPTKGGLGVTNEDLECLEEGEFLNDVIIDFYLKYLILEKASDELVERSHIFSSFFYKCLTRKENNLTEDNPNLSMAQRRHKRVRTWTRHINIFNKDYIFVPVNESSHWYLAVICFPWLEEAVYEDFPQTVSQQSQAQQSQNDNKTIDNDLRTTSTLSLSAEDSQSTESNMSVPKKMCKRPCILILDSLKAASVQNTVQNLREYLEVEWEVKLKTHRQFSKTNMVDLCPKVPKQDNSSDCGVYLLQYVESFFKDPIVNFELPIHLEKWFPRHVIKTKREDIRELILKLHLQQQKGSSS

[17] = molecular target: T4, Sentrin-specific protease 6 (Homo sapiens, UniProt Q9GZR1); assay type: functional;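 note: Luminescence-based dose-response confirmatory assay of SENP6 inhibition, following up an ultra-high-throughput screen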
T4 sequence (Q9GZR1 whole entry): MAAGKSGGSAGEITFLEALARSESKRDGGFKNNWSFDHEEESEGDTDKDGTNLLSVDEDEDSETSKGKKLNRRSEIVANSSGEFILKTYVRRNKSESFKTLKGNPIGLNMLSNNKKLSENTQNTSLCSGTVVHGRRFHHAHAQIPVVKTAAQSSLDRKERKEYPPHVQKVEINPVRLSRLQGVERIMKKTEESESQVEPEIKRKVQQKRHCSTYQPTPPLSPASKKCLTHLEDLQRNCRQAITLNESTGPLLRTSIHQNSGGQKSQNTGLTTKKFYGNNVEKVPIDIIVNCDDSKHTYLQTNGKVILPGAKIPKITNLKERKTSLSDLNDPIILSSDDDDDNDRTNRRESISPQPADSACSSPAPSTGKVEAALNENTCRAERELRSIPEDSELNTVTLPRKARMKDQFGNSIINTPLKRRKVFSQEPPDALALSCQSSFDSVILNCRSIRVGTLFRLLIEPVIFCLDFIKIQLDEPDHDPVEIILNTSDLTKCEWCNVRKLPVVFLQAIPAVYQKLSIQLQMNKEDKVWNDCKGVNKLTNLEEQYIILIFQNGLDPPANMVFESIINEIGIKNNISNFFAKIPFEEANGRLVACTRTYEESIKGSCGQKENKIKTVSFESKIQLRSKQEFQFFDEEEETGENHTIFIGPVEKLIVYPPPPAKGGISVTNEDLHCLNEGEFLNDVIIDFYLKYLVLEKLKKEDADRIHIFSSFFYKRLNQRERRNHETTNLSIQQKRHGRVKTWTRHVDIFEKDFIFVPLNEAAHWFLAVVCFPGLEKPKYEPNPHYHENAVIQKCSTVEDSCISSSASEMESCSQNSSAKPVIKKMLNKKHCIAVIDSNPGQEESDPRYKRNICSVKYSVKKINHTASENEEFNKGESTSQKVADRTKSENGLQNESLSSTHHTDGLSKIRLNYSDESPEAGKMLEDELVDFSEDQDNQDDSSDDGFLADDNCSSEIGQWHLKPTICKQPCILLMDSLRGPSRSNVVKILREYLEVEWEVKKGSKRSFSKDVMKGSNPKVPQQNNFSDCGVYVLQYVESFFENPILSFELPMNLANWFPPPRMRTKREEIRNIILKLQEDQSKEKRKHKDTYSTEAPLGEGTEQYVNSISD

[18] = molecular target: T5, Sentrin-specific protease 8 (Homo sapiens, UniProt Q96LD8); assay type: functional;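 note: luminescence read-out of SENP8 inhibition, dose-response confirmation following an ultra-high-throughput screen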
T5 sequence (Q96LD8 whole entry): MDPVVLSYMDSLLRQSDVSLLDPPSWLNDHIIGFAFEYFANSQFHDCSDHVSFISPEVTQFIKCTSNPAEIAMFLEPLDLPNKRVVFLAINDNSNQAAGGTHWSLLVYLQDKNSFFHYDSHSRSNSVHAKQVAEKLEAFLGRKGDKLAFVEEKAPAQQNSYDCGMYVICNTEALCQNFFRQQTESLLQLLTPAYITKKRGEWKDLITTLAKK

[19] = molecular target: T6, Oxysterols receptor LXR-beta (Homo sapiens, UniProt P55055); assay type: functional, cell-based;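 note: Cell-based luminescence dose-response assay of agonist activity at LXR, run as a confirmatory counterscreen to a daf-12 agonist screen; HEK293 cells with Gal4-LXR fusion and GAL4-driven luciferase reporter; agonist potency from rising luciferase signal of a Gal4-LXR reporter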
T6 sequence (P55055 whole entry): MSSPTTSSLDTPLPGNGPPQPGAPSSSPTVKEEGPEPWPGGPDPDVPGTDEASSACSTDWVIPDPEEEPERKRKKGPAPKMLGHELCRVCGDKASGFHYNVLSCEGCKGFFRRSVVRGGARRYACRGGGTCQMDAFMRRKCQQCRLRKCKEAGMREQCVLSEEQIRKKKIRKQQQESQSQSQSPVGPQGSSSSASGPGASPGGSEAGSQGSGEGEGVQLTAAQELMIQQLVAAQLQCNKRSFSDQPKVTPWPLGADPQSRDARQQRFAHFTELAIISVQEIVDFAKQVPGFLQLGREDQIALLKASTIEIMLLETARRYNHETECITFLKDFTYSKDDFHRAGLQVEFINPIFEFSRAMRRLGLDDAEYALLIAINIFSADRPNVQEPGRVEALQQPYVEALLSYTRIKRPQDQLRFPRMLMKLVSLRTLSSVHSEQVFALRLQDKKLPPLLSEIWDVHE

[20] = molecular target: G-protein coupled receptor 183 (Homo sapiens, UniProt P32249); experiment: SAR confirmation of small molecule antagonists of the EBI2 receptor via a luminescent beta-arrestin assa.; assay type: functional
Sequence of G-protein coupled receptor 183 (P32249 whole entry): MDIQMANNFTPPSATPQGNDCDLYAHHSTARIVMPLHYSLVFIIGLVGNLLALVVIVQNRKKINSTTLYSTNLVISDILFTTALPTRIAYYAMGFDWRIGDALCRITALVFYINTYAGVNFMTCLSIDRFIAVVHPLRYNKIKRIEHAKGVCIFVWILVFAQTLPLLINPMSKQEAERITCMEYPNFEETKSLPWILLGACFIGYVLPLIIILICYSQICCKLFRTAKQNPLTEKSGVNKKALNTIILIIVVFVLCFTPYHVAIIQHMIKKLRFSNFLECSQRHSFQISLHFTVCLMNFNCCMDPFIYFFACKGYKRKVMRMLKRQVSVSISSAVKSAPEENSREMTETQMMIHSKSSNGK

Sequence of Kallikrein-7 (P49862 whole entry): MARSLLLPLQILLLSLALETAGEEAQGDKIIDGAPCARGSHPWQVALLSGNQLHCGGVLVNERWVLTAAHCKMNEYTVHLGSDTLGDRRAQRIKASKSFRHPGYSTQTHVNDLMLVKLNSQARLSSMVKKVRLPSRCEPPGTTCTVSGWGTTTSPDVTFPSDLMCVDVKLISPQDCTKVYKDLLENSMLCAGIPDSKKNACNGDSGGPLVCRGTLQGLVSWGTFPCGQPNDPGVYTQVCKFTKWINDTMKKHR
Sequence of Paired box protein Pax-8 (Q06710 whole entry): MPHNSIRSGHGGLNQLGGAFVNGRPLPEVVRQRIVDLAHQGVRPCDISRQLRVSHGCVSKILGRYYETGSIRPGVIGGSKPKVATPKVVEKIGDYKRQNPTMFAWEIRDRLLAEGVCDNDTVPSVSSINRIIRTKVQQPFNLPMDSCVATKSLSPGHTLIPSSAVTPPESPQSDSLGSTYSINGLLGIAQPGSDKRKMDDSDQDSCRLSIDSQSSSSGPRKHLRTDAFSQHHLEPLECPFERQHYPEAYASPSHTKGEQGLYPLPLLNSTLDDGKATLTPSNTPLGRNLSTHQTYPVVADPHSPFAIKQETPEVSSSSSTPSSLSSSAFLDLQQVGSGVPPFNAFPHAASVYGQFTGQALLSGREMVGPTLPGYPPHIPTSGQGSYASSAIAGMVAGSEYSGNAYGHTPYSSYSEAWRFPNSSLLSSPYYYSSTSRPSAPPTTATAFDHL

Compound: CN(C)CCNS(=O)(=O)c1ccc2c3c(cccc13)C(=O)N2
- EC50 (Kallikrein-7): 1.83 µM (active)

Compound: CCOC(=O)N1CCC2(CC1)CC(=O)c1c(ccc3oc(C(=O)O)c(C)c13)O2
- EC50 (Kallikrein-7): 97.5 µM (inactive)

Compound: COc1cc(CCC(C)=O)ccc1OC(=O)c1c(F)cccc1Cl
- IC50 [1]: > 109 µM (inactive)
- IC50 [2]: > 83.2 µM (inactive)

Compound: Cc1ccc(C)n1-c1sc2c(c1C#N)CCC(C)C2 (configuration not stated)
- EC50 [3]: 7.14 µM (active)
- EC50 (Streptokinase A): 14.6 µM (active)
- EC50 (Streptococcus): > 150 µM (not active)
- IC50 [1]: > 109 µM (inactive)
- IC50 [2]: > 83.3 µM (inactive)

Compound: O=C1Nc2ccccc2N=C(c2ccccc2)C1N(Cc1ccc(F)cc1)C(=O)c1cccnc1 (configuration not stated)
- AC50 [4]: 36.7 µM (active)

Compound: Cc1ccc(S(=O)(=O)N(C)C[C@@H]2Oc3cc(C#Cc4ccncc4)ccc3S(=O)(=O)N([C@H](C)CO)C[C@H]2C)cc1
- AC50 (Paired box protein Pax-8): 3.3 µM (active)
- AC50 [4]: 3.54 µM (active)
- AC50 [5]: 3.13 µM (active)
- AC50 [6]: > 70 µM (inactive)

Compound: C[C@H](CO)N1C[C@H](C)[C@H](CN(C)S(=O)(=O)c2ccc(C(F)(F)F)cc2)OCc2ccccc2-c2c(n(C)c3ccccc23)C1=O
- AC50 [7]: 19.8 µM (active)
- AC50 [8]: 27.3 µM (active)
- AC50 [9]: 28.9 µM (active)
- AC50 [10]: 0.155 µM (active)
- AC50 [11]: 25.7 µM (active)
- AC50 [12]: 0.293 µM (active)
- AC50 [13]: 0.427 µM (active)
- AC50 [14]: 0.117 µM (active)
- AC50 [15]: 0.152 µM (active)

Compound: CCOC(=O)/C(=N\Nc1ncnc2ccccc12)c1ccc(C)cc1
- IC50 (Caspase-3): 32.9 µM (active)
- IC50 [16]: 6.78 µM (active)
- IC50 [17]: 11.7 µM (active)
- IC50 [18]: 13.4 µM (active)
- EC50 [19]: > 67.6 µM (inactive)
- EC50 (cells): > 67.6 µM (inactive)

Compound: C[C@@H]1CN([C@H](C)CO)C(=O)c2cccc(NC(=O)c3ccc(-c4nccs4)cc3)c2O[C@@H]1CN(C)C(=O)Nc1ccc(C(F)(F)F)cc1
- AC50 [12]: 0.886 µM (active)

Compound: O=C(/C=C/c1ccc(F)cc1)N1CCN(S(=O)(=O)c2ccccc2Br)CC1
- IC50 [20]: 0.00801 µM (active)

Compound: Cc1ccc(C(=O)N2CCN(C(=O)/C=C/c3ccc(Br)cc3)CC2)cc1
- IC50 [20]: 0.00102 µM (active)
